Assay results: patent US6358885B1, “Substituted phenylheterocyclic herbicides” (Mississippi State University, priority 1992, dated 2002)

Columns and labels:
Experiment in all cases: Test B preemergence/postemergence greenhouse plant response rating 0 to 10
purple nutsedge = format: in vivo, Cyperus rotundus; settings: for Plant response rating, Nutsedge: 0 to 10 scale
How it was run: (§1)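 Test chemicals, dissolved in a non-phytotoxic solvent, were applied to soil at planting and, at the same time, over foliage of seedlings at the one to four leaf stage.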

giant foxtail = format: in vivo, Setaria faberii; settings: for Plant response rating, Giant foxtail: 0 to 10 scale
How it was run: as §1

rice = format: in vivo, Oryza sativa; settings: for Plant response rating, Rice: 0 to 10 scale
How it was run: as §1

sugar beet = format: in vivo, Beta vulgaris; settings: for Plant response rating, Sugar beet: 0 to 10 scale
How it was run: as §1

barnyardgrass = format: in vivo, Echinochloa crus-galli; settings: for Plant response rating, Barnyardgrass: 0 to 10 scale
How it was run: as §1

sorghum = format: in vivo, Sorghum bicolor; settings: for Plant response rating, Sorghum: 0 to 10 scale
How it was run: as §1

corn = format: in vivo, Zea mays; settings: for Plant response rating, Corn: 0 to 10 scale
How it was run: as §1

cotton = format: in vivo, Gossypium hirsutum; settings: for Plant response rating, Cotton: 0 to 10 scale
How it was run: as §1

morningglory = format: in vivo, Ipomoea hederacea; settings: for Plant response rating, Morningglory: 0 to 10 scale
How it was run: as §1

chickweed = format: in vivo, Stellaria media; settings: for Plant response rating, Chickweed: 0 to 10 scale
How it was run: as §1

wheat = format: in vivo, Triticum aestivum; settings: for Plant response rating, Wheat: 0 to 10 scale
How it was run: as §1

barley = format: in vivo, Hordeum vulgare; settings: for Plant response rating, Barley: 0 to 10 scale
How it was run: as §1

blackgrass = format: in vivo, Alopecurus myosuroides; settings: for Plant response rating, Blackgrass: 0 to 10 scale
How it was run: as §1

soybean = format: in vivo, Glycine max; settings: for Plant response rating, Soybean: 0 to 10 scale
How it was run: as §1

bedstraw = format: in vivo, Galium aparine; settings: for Plant response rating, Bedstraw: 0 to 10 scale
How it was run: as §1

cocklebur = format: in vivo, Xanthium pensylvanicum; settings: for Plant response rating, Cocklebur: 0 to 10 scale
How it was run: as §1

lambsquarters = format: in vivo, Chenopodium album; settings: for Plant response rating, Lambsquarter: 0 to 10 scale
How it was run: as §1

crabgrass = format: in vivo, Digitaria spp.; settings: for Plant response rating, Crabgrass: 0 to 10 scale
How it was run: as §1

cheatgrass = format: in vivo, Bromus secalinus; settings: for Plant response rating, Cheatgrass: 0 to 10 scale
How it was run: as §1

rape = format: in vivo, Brassica napus; settings: for Plant response rating, Rape: 0 to 10 scale
How it was run: as §1

wild buckwheat = format: in vivo, Polygonum convolvulus; settings: for Plant response rating, Wild buckwheat: 0 to 10 scale
How it was run: as §1

wild oat = format: in vivo, Avena fatua; settings: for Plant response rating, Wild oat: 0 to 10 scale
How it was run: as §1

velvetleaf = format: in vivo, Abutilon theophrasti; settings: for Plant response rating, Velvetleaf: 0 to 10 scale
How it was run: as §1

SMILES: COCCOc1cc(-c2nn3c(c2Cl)CCCC3)c(Cl)cc1Cl [Compound 72]
- Plant response rating, Nutsedge (purple nutsedge; POSTEMERGENCE, Rate 50 g/ha): 2
- Plant response rating, Nutsedge (purple nutsedge; PREEMERGENCE, Rate 50 g/ha): 0
- Plant response rating (0 to 10 scale), Nutsedge (purple nutsedge; PREEMERGENCE, Rate 200 g/ha): 4
- Plant response rating, Nutsedge (purple nutsedge; Rate 200 g/ha, POSTEMERGENCE): 2
- Plant response rating, Giant foxtail (giant foxtail; POSTEMERGENCE, Rate 50 g/ha): 4
- Plant response rating, Giant foxtail (giant foxtail; PREEMERGENCE, Rate 50 g/ha): 3
- Plant response rating (0 to 10 scale), Giant foxtail (giant foxtail; PREEMERGENCE, Rate 200 g/ha): 7
- Plant response rating, Giant foxtail (giant foxtail; Rate 200 g/ha, POSTEMERGENCE): 5
- Plant response rating, Rice (rice; POSTEMERGENCE, Rate 50 g/ha): 4
- Plant response rating, Rice (rice; PREEMERGENCE, Rate 50 g/ha): 0
- Plant response rating (0 to 10 scale), Rice (rice; PREEMERGENCE, Rate 200 g/ha): 0
- Plant response rating, Rice (rice; Rate 200 g/ha, POSTEMERGENCE): 6
- Plant response rating, Sugar beet (sugar beet; POSTEMERGENCE, Rate 50 g/ha): 10
- Plant response rating, Sugar beet (sugar beet; PREEMERGENCE, Rate 50 g/ha): 0
- Plant response rating (0 to 10 scale), Sugar beet (sugar beet; PREEMERGENCE, Rate 200 g/ha): 9
- Plant response rating, Sugar beet (sugar beet; Rate 200 g/ha, POSTEMERGENCE): 10
- Plant response rating, Barnyardgrass (barnyardgrass; POSTEMERGENCE, Rate 50 g/ha): 5
- Plant response rating, Barnyardgrass (barnyardgrass; PREEMERGENCE, Rate 50 g/ha): 3
- Plant response rating (0 to 10 scale), Barnyardgrass (barnyardgrass; PREEMERGENCE, Rate 200 g/ha): 3
- Plant response rating, Barnyardgrass (barnyardgrass; Rate 200 g/ha, POSTEMERGENCE): 7
- Plant response rating, Sorghum (sorghum; POSTEMERGENCE, Rate 50 g/ha): 5
- Plant response rating, Sorghum (sorghum; PREEMERGENCE, Rate 50 g/ha): 0
- Plant response rating (0 to 10 scale), Sorghum (sorghum; PREEMERGENCE, Rate 200 g/ha): 0
- Plant response rating, Sorghum (sorghum; Rate 200 g/ha, POSTEMERGENCE): 6
- Plant response rating, Corn (corn; POSTEMERGENCE, Rate 50 g/ha): 3
- Plant response rating, Corn (corn; PREEMERGENCE, Rate 50 g/ha): 0
- Plant response rating (0 to 10 scale), Corn (corn; PREEMERGENCE, Rate 200 g/ha): 2
- Plant response rating, Corn (corn; Rate 200 g/ha, POSTEMERGENCE): 5
- Plant response rating, Cotton (cotton; POSTEMERGENCE, Rate 50 g/ha): 10
- Plant response rating, Cotton (cotton; PREEMERGENCE, Rate 50 g/ha): 0
- Plant response rating (0 to 10 scale), Cotton (cotton; PREEMERGENCE, Rate 200 g/ha): 0
- Plant response rating, Cotton (cotton; Rate 200 g/ha, POSTEMERGENCE): 10
- Plant response rating, Morningglory (morningglory; POSTEMERGENCE, Rate 50 g/ha): 7
- Plant response rating, Morningglory (morningglory; PREEMERGENCE, Rate 50 g/ha): 0
- Plant response rating (0 to 10 scale), Morningglory (morningglory; PREEMERGENCE, Rate 200 g/ha): 0
- Plant response rating, Morningglory (morningglory; Rate 200 g/ha, POSTEMERGENCE): 9
- Plant response rating, Chickweed (chickweed; POSTEMERGENCE, Rate 50 g/ha): 2
- Plant response rating, Chickweed (chickweed; PREEMERGENCE, Rate 50 g/ha): 0
- Plant response rating (0 to 10 scale), Chickweed (chickweed; PREEMERGENCE, Rate 200 g/ha): 9
- Plant response rating, Chickweed (chickweed; Rate 200 g/ha, POSTEMERGENCE): 3
- Plant response rating, Wheat (wheat; POSTEMERGENCE, Rate 50 g/ha): 5
- Plant response rating, Wheat (wheat; PREEMERGENCE, Rate 50 g/ha): 0
- Plant response rating (0 to 10 scale), Wheat (wheat; PREEMERGENCE, Rate 200 g/ha): 3
- Plant response rating, Wheat (wheat; Rate 200 g/ha, POSTEMERGENCE): 5
- Plant response rating, Barley (barley; POSTEMERGENCE, Rate 50 g/ha): 4
- Plant response rating, Barley (barley; PREEMERGENCE, Rate 50 g/ha): 0
- Plant response rating (0 to 10 scale), Barley (barley; PREEMERGENCE, Rate 200 g/ha): 0
- Plant response rating, Barley (barley; Rate 200 g/ha, POSTEMERGENCE): 5
- Plant response rating, Blackgrass (blackgrass; POSTEMERGENCE, Rate 50 g/ha): 5
- Plant response rating, Blackgrass (blackgrass; PREEMERGENCE, Rate 50 g/ha): 0
- Plant response rating (0 to 10 scale), Blackgrass (blackgrass; PREEMERGENCE, Rate 200 g/ha): 4
- Plant response rating, Blackgrass (blackgrass; Rate 200 g/ha, POSTEMERGENCE): 7
- Plant response rating, Soybean (soybean; POSTEMERGENCE, Rate 50 g/ha): 6
- Plant response rating, Soybean (soybean; PREEMERGENCE, Rate 50 g/ha): 0
- Plant response rating (0 to 10 scale), Soybean (soybean; PREEMERGENCE, Rate 200 g/ha): 0
- Plant response rating, Soybean (soybean; Rate 200 g/ha, POSTEMERGENCE): 7
- Plant response rating, Bedstraw (bedstraw; POSTEMERGENCE, Rate 50 g/ha): 7
- Plant response rating, Bedstraw (bedstraw; PREEMERGENCE, Rate 50 g/ha): 0
- Plant response rating (0 to 10 scale), Bedstraw (bedstraw; PREEMERGENCE, Rate 200 g/ha): 8
- Plant response rating, Bedstraw (bedstraw; Rate 200 g/ha, POSTEMERGENCE): 9
- Plant response rating, Cocklebur (cocklebur; POSTEMERGENCE, Rate 50 g/ha): 8
- Plant response rating, Cocklebur (cocklebur; PREEMERGENCE, Rate 50 g/ha): 0
- Plant response rating (0 to 10 scale), Cocklebur (cocklebur; PREEMERGENCE, Rate 200 g/ha): 0
- Plant response rating, Cocklebur (cocklebur; Rate 200 g/ha, POSTEMERGENCE): 10
- Plant response rating, Lambsquarter (lambsquarters; POSTEMERGENCE, Rate 50 g/ha): 10
- Plant response rating, Lambsquarter (lambsquarters; PREEMERGENCE, Rate 50 g/ha): 9
- Plant response rating (0 to 10 scale), Lambsquarter (lambsquarters; PREEMERGENCE, Rate 200 g/ha): 10
- Plant response rating, Lambsquarter (lambsquarters; Rate 200 g/ha, POSTEMERGENCE): 10
- Plant response rating, Crabgrass (crabgrass; POSTEMERGENCE, Rate 50 g/ha): 2
- Plant response rating, Crabgrass (crabgrass; PREEMERGENCE, Rate 50 g/ha): 0
- Plant response rating (0 to 10 scale), Crabgrass (crabgrass; PREEMERGENCE, Rate 200 g/ha): 9
- Plant response rating, Crabgrass (crabgrass; Rate 200 g/ha, POSTEMERGENCE): 2
- Plant response rating, Cheatgrass (cheatgrass; POSTEMERGENCE, Rate 50 g/ha): 5
- Plant response rating, Cheatgrass (cheatgrass; PREEMERGENCE, Rate 50 g/ha): 0
- Plant response rating (0 to 10 scale), Cheatgrass (cheatgrass; PREEMERGENCE, Rate 200 g/ha): 3
- Plant response rating, Cheatgrass (cheatgrass; Rate 200 g/ha, POSTEMERGENCE): 6
- Plant response rating, Rape (rape; POSTEMERGENCE, Rate 50 g/ha): 9
- Plant response rating, Rape (rape; PREEMERGENCE, Rate 50 g/ha): 0
- Plant response rating (0 to 10 scale), Rape (rape; PREEMERGENCE, Rate 200 g/ha): 6
- Plant response rating, Rape (rape; Rate 200 g/ha, POSTEMERGENCE): 9
- Plant response rating, Wild buckwheat (wild buckwheat; POSTEMERGENCE, Rate 50 g/ha): 10
- Plant response rating, Wild buckwheat (wild buckwheat; PREEMERGENCE, Rate 50 g/ha): 0
- Plant response rating (0 to 10 scale), Wild buckwheat (wild buckwheat; PREEMERGENCE, Rate 200 g/ha): 2
- Plant response rating, Wild buckwheat (wild buckwheat; Rate 200 g/ha, POSTEMERGENCE): 10
- Plant response rating, Wild oat (wild oat; POSTEMERGENCE, Rate 50 g/ha): 3
- Plant response rating, Wild oat (wild oat; PREEMERGENCE, Rate 50 g/ha): 0
- Plant response rating (0 to 10 scale), Wild oat (wild oat; PREEMERGENCE, Rate 200 g/ha): 3
- Plant response rating, Wild oat (wild oat; Rate 200 g/ha, POSTEMERGENCE): 4
- Plant response rating, Velvetleaf (velvetleaf; POSTEMERGENCE, Rate 50 g/ha): 9
- Plant response rating, Velvetleaf (velvetleaf; PREEMERGENCE, Rate 50 g/ha): 0
- Plant response rating (0 to 10 scale), Velvetleaf (velvetleaf; PREEMERGENCE, Rate 200 g/ha): 10
- Plant response rating, Velvetleaf (velvetleaf; Rate 200 g/ha, POSTEMERGENCE): 10
